According to patent US20240228535A1 (priority 2022, published 2024):

target: SARS2 coronavirus 3CL protease (Severe acute respiratory syndrome coronavirus 2, UniProt P0DTD1); assay: biochemical; conditions: 5 nM enzyme, 30 min pre-incubation with compound, 15 μM peptide substrate, 4 h at room temperature; read-out: FRET Potency (nM); IC50 values in the SARS2 3CLPro FRET assay

| SMILES | IC50 [nM] |
| --- | --- |
| CNC(=O)C(=O)[C@H](C[C@@H]1C[C@@H](C)NC1=O)NC(=O)c1cc(Cl)ccc1NC(=O)C(C)c1ccc(C(F)(F)F)nc1 (single isomer, unassigned) [Example 229] | 33.5 |
| C[C@@H]1C[C@@H](C[C@H](NC(=O)c2cc(Cl)ccc2NC(=O)c2ccc(C(F)(F)F)nc2)C(=O)C(=O)NC2CC2)C(=O)N1 [Example 225, N-[4-chloro-2-[[(1S)-3-(cyclopropylamino)-1-[[(3S,5R)-5-methyl-2-oxo-pyrrolidin-3-yl]methyl]-2,3-dioxo-propyl]carbamoyl]phenyl]-6-(trifluoromethyl)pyridine-3-carboxamide] | 6.8 |
| C[C@@H]1C[C@@H](C[C@H](NC(=O)c2cc(Cl)ccc2NC(=O)c2ccnc(C(F)F)c2)C(=O)C(=O)NC2CC2)C(=O)N1 [Example 92, N-[4-chloro-2-[[(1S)-3-(cyclopropylamino)-1-[[(3S,5R)-5-methyl-2-oxo-pyrrolidin-3-yl]methyl]-2,3-dioxo-propyl]carbamoyl]phenyl]-2-(difluoromethyl)pyridine-4-carboxamide] | 9 |
| CNC(=O)C(=O)[C@H](C[C@@H]1C[C@@H](C)NC1=O)NC(=O)c1cc(Cl)ccc1NC(=O)OCC1CC1 [Example 152, cyclopropylmethyl N-[4-chloro-2-[[(1S)-3-(methylamino)-1-[[(3S,5R)-5-methyl-2-oxo-pyrrolidin-3-yl]methyl]-2,3-dioxo-propyl]carbamoyl]phenyl] carbamate] | 5 |
| CNC(=O)C(=O)[C@H](C[C@@H]1C[C@@H](C)NC1=O)NC(=O)c1cc(Cl)ccc1NC(=O)c1ccc(C(F)(F)F)cn1 [Example 55, N-[4-chloro-2-[[(1S)-3-(methylamino)-1-[[(3S,5R)-5-methyl-2-oxo-pyrrolidin-3-yl]methyl]-2,3-dioxo-propyl]carbamoyl]phenyl]-5-(trifluoromethyl)pyridine-2-carboxamide] | 8.2 |
| CNC(=O)C(=O)[C@H](C[C@@H]1CCNC1=O)NC(=O)c1cc(Cl)ccc1NC(=O)OC1CC1 [Example 11, cyclopropyl (4-chloro-2-(((S)-4-(methylamino)-3,4-dioxo-1-((S)-2-oxopyrrolidin-3-yl)butan-2-yl)carbamoyl)phenyl)carbamate] | 4.8 |
| C[C@@H]1C[C@@H](C[C@H](NC(=O)c2cc(Cl)cnc2NC(=O)c2cccc(F)c2)C(=O)C(=O)NC2CC2)C(=O)N1 [Example 58, 5-chloro-N-[(1S)-3-(cyclopropylamino)-1-[[(3S,5R)-5-methyl-2-oxo-pyrrolidin-3-yl]methyl]-2,3-dioxo-propyl]-2-[(3-fluorobenzoyl)amino] pyridine-3-carboxamide] | 8.1 |
| CNC(=O)C(=O)[C@H](C[C@@H]1C[C@@H](C)NC1=O)NC(=O)c1cc(Cl)c(F)cc1NC(=O)OC1CC1 [Example 154, cyclopropyl N-[4-chloro-5-fluoro-2-[(1S)-3-(methylamino)-1-[[(3S,5R)-5-methyl-2-oxo-pyrrolidin-3-yl]methyl]-2,3-dioxo-propyl]carbamoyl]phenyl] carbamate] | 4.5 |
| CNC(=O)C(=O)[C@H](C[C@@H]1C[C@@H](C)NC1=O)NC(=O)c1cc(Cl)ccc1NC(=O)OC1CC(F)(F)C1 [Example 188, (3,3-difluorocyclobutyl) N-[4-chloro-2-[(1S)-3-(methylamino)-1-[[(3S,5R)-5-methyl-2-oxo-pyrrolidin-3-yl]methyl]-2,3-dioxo-propyl]carbamoyl]phenyl] carbamate] | 7.2 |
| CNC(=O)C(=O)[C@H](C[C@@H]1C[C@@H](C)NC1=O)NC(=O)c1cc(Cl)ccc1NC(=O)c1cncc(C#N)c1 [Example 183] | 10.1 |
| CNC(=O)C(=O)[C@H](C[C@@H]1C[C@@H](C)NC1=O)NC(=O)c1cc(F)c(F)cc1NC(=O)OC [Example 120, methyl N-[4,5-difluoro-2-[[(1S)-3-(methylamino)-1-[[(3S,5R)-5-methyl-2-oxo-pyrrolidin-3-yl]methyl]-2,3-dioxo-propyl]carbamoyl]phenyl] carbamate] | 11.1 |
| C[C@@H]1C[C@@H](C[C@H](NC(=O)c2cc(C(F)F)ccc2NC(=O)c2cccc(C(F)(F)F)c2)C(=O)C(=O)NC2CC2)C(=O)N1 [Example 44, N-[(1S)-3-(cyclopropylamino)-1-[[(3S,5R)-5-methyl-2-oxo-pyrrolidin-3-yl]methyl]-2,3-dioxo-propyl]-5-(difluoromethyl)-2-[[3-(trifluoromethyl)benzoyl]amino]benzamide] | 9.4 |
| CNC(=O)C(=O)[C@H](C[C@@H]1C[C@@H](C)NC1=O)NC(=O)c1cc(Cl)ccc1NC(=O)OC1CC1 [Example 10, cyclopropyl (4-chloro-2-(((S)-1-((3S,5R)-5-methyl-2-oxopyrrolidin-3-yl)-4-(methylamino)-3,4-dioxobutan-2-yl)carbamoyl)phenyl)carbamate] | 3.9 |
| C[C@@H]1C[C@@H](C[C@H](NC(=O)c2cc(OC(F)F)ccc2NC(=O)c2cccc(C(F)(F)F)c2)C(=O)C(=O)NC2CC2)C(=O)N1 [Example 20, N-[(1S)-3-(cyclopropylamino)-1-[[(3S,5R)-5-methyl-2-oxo-pyrrolidin-3-yl]methyl]-2,3-dioxo-propyl]-5-(difluoromethoxy)-2-[[3-(trifluoromethyl)benzoyl]amino]benzamide] | 26.4 |
| O=C(NC1CC1)C(=O)[C@H](C[C@@H]1CCNC1=O)NC(=O)c1cc(Cl)ccc1NC(=O)C1(C(F)(F)F)CC1 [Example 102] | 12.9 |
| CNC(=O)C(=O)[C@H](C[C@@H]1C[C@@H](C)NC1=O)NC(=O)c1cc(F)ccc1NC(=O)OC1CC1 [Example 121, cyclopropyl N-[4-fluoro-2-[[(1S)-3-(methylamino)-1-[[(3S,5R)-5-methyl-2-oxo-pyrrolidin-3-yl]methyl]-2,3-dioxo-propyl]carbamoyl]phenyl] carbamate] | 10.9 |
| O=C(CCC(F)(F)F)Nc1ccc(Cl)cc1C(=O)N[C@@H](C[C@@H]1C[C@@H](C(F)(F)F)NC1=O)C(=O)C(=O)NC1CC1 [Example 68, 5-chloro-N-[(1S)-3-(cyclopropylamino)-2,3-dioxo-1-[[(3R,5S)-2-oxo-5-(trifluoromethyl)pyrrolidin-3-yl]methyl]propyl]-2-(4,4,4-trifluorobutanoylamino) benzamide] | 7 |
| CNC(=O)C(=O)[C@H](C[C@@H]1C[C@@H](C)NC1=O)NC(=O)c1cc(Cl)ccc1NC(=O)C1CC1(F)F (single isomer, unassigned) [Example 60] | 7.9 |
| CNC(=O)C(=O)[C@H](C[C@@H]1C[C@@H](C)NC1=O)NC(=O)c1cc(Cl)cnc1NC(=O)c1ccc(F)cc1 [Example 57, 5-chloro-2-[(4-fluorobenzoyl)amino]-N-[(1S)-3-(methylamino)-1-[[(3S,5R)-5-methyl-2-oxo-pyrrolidin-3-yl]methyl]-2,3-dioxo-propyl]pyridine-3-carboxamide] | 8.1 |
| CC(C(=O)Nc1ccc(Cl)cc1C(=O)N[C@@H](C[C@@H]1C[C@@H](C)NC1=O)C(=O)C(=O)NC1CC1)c1cscn1 (stereo partly drawn) [Example 93, 5-chloro-N-[(1S)-3-(cyclopropylamino)-1-[[(3S,5R)-5-methyl-2-oxo-pyrrolidin-3-yl]methyl]-2,3-dioxo-propyl]-2-(2-thiazol-4-ylpropanoylamino)benzamide] | 12.6 |
| CNC(=O)C(=O)[C@H](C[C@@H]1C[C@@H](C)NC1=O)NC(=O)c1cc(C(F)F)ccc1NC(=O)c1cccc(C(F)(F)F)c1 [Example 70, 5-(difluoromethyl)-N-[(1S)-3-(methylamino)-1-[[(3S,5R)-5-methyl-2-oxo-pyrrolidin-3-yl]methyl]-2,3-dioxo-propyl]-2-[[3-(trifluoromethyl)benzoyl]amino]benzamide] | 6.9 |
| CNC(=O)C(=O)[C@H](C[C@@H]1CCNC1=O)NC(=O)c1cc(Cl)ccc1NC(=O)C(C)(C)C [Example 126, 5-chloro-2-(2,2-dimethylpropanoylamino)-N-[(1S)-3-(methylamino)-2,3-dioxo-1-[[(3S)-2-oxopyrrolidin-3-yl]methyl]propyl]benzamide] | 3.8 |
| CNC(=O)C(=O)[C@H](C[C@@H]1C[C@@H](C)NC1=O)NC(=O)c1cc(Cl)ccc1NC(=O)OC(C)(C)C [Example 153, tert-butyl N-[4-chloro-2-[[(1S)-3-(methylamino)-1-[[(3S,5R)-5-methyl-2-oxo-pyrrolidin-3-yl]methyl]-2,3-dioxo-propyl]carbamoyl]phenyl] carbamate] | 39.8 |
| CNC(=O)C(=O)[C@H](C[C@@H]1CCNC1=O)NC(=O)c1cc(Cl)ccc1NC(=O)C1CC1 [Example 110, 5-chloro-2-(cyclopropanecarbonylamino)-N-[(1S)-3-(methylamino)-2,3-dioxo-1-[[(3S)-2-oxopyrrolidin-3-yl]methyl]propyl]benzamide] | 3.1 |
| CNC(=O)C(=O)[C@H](C[C@@H]1C[C@@H](C)NC1=O)NC(=O)c1cc(Cl)c(F)cc1NC(=O)OC [Example 132, methyl N-[4-chloro-5-fluoro-2-[[(1S)-3-(methylamino)-1-[[(3S,5R)-5-methyl-2-oxo-pyrrolidin-3-yl]methyl]-2,3-dioxo-propyl]carbamoyl]phenyl] carbamate] | 13.8 |
| C[C@@H]1C[C@@H](C[C@H](NC(=O)c2cc(Cl)cnc2NC(=O)C2(C(F)(F)F)CC2)C(=O)C(=O)NC2CC2)C(=O)N1 [Example 22, 5-chloro-N-[(1S)-3-(cyclopropylamino)-1-[[(3S,5R)-5-methyl-2-oxo-pyrrolidin-3-yl]methyl]-2,3-dioxo-propyl]-2-[[1-(trifluoromethyl)cyclopropane-carbonyl]amino]pyridine-3-carboxamide] | 22.6 |
| CNC(=O)C(=O)[C@H](C[C@@H]1C[C@@H](C)NC1=O)NC(=O)c1cc(Cl)cc(F)c1NC(=O)OC [Example 133, methyl N-[4-chloro-2-fluoro-6-[[(1S)-3-(methylamino)-1-[[(3S,5R)-5-methyl-2-oxo-pyrrolidin-3-yl]methyl]-2,3-dioxo-propyl]carbamoyl]phenyl] carbamate] | 9.9 |
